# Test results from patent publication US20230151014A1 (Repare Therapeutics Inc., priority 2020, published 2023).
# Target: T1, recombinant human Myt1 (Homo sapiens, UniProt Q99640)
# T1 construct: full length PKMYT1 recombinant human protein expressed in insect cells
# T1 sequence (Q99640 1-499): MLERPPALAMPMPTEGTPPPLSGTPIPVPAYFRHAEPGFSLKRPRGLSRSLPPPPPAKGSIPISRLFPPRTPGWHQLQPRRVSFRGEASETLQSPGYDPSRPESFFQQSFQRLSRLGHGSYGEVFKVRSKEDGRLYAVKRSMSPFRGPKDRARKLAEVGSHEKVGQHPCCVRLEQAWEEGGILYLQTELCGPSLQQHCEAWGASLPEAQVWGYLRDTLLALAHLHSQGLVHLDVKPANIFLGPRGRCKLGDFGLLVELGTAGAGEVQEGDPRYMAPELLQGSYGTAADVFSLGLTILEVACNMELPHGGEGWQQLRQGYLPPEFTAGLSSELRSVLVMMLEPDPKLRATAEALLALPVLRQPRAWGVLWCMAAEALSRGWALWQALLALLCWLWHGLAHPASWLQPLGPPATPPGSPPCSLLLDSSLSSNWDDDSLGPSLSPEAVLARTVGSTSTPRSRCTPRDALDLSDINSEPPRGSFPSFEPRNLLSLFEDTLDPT
# Assay: Myt1 enzymatic assay (ADP-Glo kinase assay, IC50 and % max inhibition)
# Assay type: biochemical
# Conditions: recombinant human Myt1 18 nM, ATP 10 μM
# Method: Detection of Myt1 kinase activity utilized a recombinant human Myt1 kinase assay measuring the hydrolysis of ATP using a commercially available ADP-Glo Assay (ADP-Glo™ Kinase Assay from Promega, 10 000 assays, #V9102). […] After this, 5 μL of compounds (diluted in reaction buffer to 0.5% DMSO) was added to the microplate and the plate was spun briefly and incubated at 22° C. for 15 minutes. Ultra-Pure Adenosine Triphosphate (ATP) solution (ADP-Glo kit from Promega) was diluted in reaction buffer and 5 μL was added to the microplate, spun down briefly and incubated for 60 minutes at 30° C. […] After the 60-minute incubation, 15 μL of ADP-Glo reagent was added and the plate was spun briefly and sealed and incubated in the dark for 40 minutes at 22° C. […] Luminescence was read using the Envision (250 ms integration). The IC50 and the % max inhibition were calculated for each inhibitor compound tested.
row,Structure (SMILES),IC50 [nM]
1,Cc1ccc(O)c(C)c1-n1c(N)c(C(N)=O)c2nc(C#CCc3ccccc3)cnc21 [Compound 1],50
2,"Cc1ccc(O)c(C)c1-n1c(N)c(C(N)=O)c2nc(CCC3CCCN3)cnc21 (stereo not drawn) [Compound 2, 6-amino-5-(3-hydroxy-2,6-dimethylphenyl)-2-(2-(pyrrolidin-2-yl)ethyl)-5H-pyrrolo[2,3-b]pyrazine-7-carboxamide]",231
3,Cc1ccc(O)c(C)c1-n1c(N)c(C(N)=O)c2nc(C#CC3CCCN3)cnc21 (stereo not drawn) [Compound 3],462
4,Cc1ccc(O)cc1-n1c(N)c(C(N)=O)c2nc(-c3cn[nH]c3)ccc21 [Compound 5],277
5,"Cc1ccc(O)cc1-n1c(N)c(C(N)=O)c2nc(C3=CCCC3)ccc21 [Compound 6, 2-amino-5-(cyclopenten-1-yl)-1-(5-hydroxy-2-methyl-phenyl)pyrrolo[3,2-b]pyridine-3-carboxamide]",1240
6,Cc1ccc(O)cc1-n1c(N)c(C(N)=O)c2nc(-c3ccc(N4CCOCC4)nc3)ccc21 [Compound 7],605
7,Cc1ccc(O)cc1-n1c(N)c(C(N)=O)c2nc(-c3ccc(N)nc3)ccc21 [Compound 8],164
8,Cc1ccc(O)cc1-n1c(N)c(C(N)=O)c2nc(-c3cccc(C(=O)O)c3)ccc21 [Compound 9],363
9,Cc1ccc(O)cc1-n1c(N)c(C(N)=O)c2nc(-c3ccc(C(=O)O)cc3)ccc21 [Compound 10],187
10,Cc1ccc(O)cc1-n1c(N)c(C(N)=O)c2nc(-c3cc[nH]n3)ccc21 [Compound 11],252
11,Cc1ccc(O)cc1-n1c(N)c(C(N)=O)c2nc(-c3ccn(C)n3)ccc21 [Compound 12],988
12,Cc1ccc(O)cc1-n1c(N)c(C(N)=O)c2nc(-c3ccc(N4CCN(CCO)CC4)cc3)ccc21 [Compound 13],190
13,Cc1ccc(O)cc1-n1c(N)c(C(N)=O)c2nc(-c3cccc(C#N)c3)ccc21 [Compound 14],480
14,Cc1ccc(O)cc1-n1c(N)c(C(N)=O)c2nc(-c3ccc(F)c(Cl)c3)ccc21 [Compound 15],1090
15,"Cc1ccc(O)cc1-n1c(N)c(C(N)=O)c2nc(C#CCN3CCOCC3)ccc21 [Compound 16, 2-amino-1-(5-hydroxy-2-methyl-phenyl)-5-(3-morpholinoprop-1-ynyl)pyrrolo[3,2-b]pyridine-3-carboxamide]",9630
16,Cc1ccc(O)cc1-n1c(N)c(C(N)=O)c2nc(C#CCC(C)(C)O)ccc21 [Compound 17],9060
17,"Cc1ccc(O)cc1-n1c(N)c(C(N)=O)c2nc(CCCN3CCOCC3)ccc21 [Compound 18, 2-amino-1-(5-hydroxy-2-methyl-phenyl)-5-(3-morpholinopropyl)pyrrolo[3,2-b]pyridine-3-carboxamide]",1940
18,Cc1ccc(O)cc1-n1c(N)c(C(N)=O)c2nc(CCCC(C)(C)O)ccc21 [Compound 19],527
19,Cc1ccc(O)cc1-n1c(N)c(C(N)=O)c2nc(-c3cccc(CC(=O)O)c3)ccc21 [Compound 20],182
20,Cc1ccc(O)cc1-n1c(N)c(C(N)=O)c2nc(-c3ccc(CC(=O)O)cc3)ccc21 [Compound 21],283

row,Structure (SMILES),IC50 [nM]
1,Cc1ccc(O)cc1-n1c(N)c(C(N)=O)c2nc(-c3ccnc(N)c3)ccc21 [Compound 22],79
2,Cc1ccc(O)cc1-n1c(N)c(C(N)=O)c2nc(-c3nccs3)ccc21 [Compound 24],29
3,Cc1ccc(O)cc1-n1c(N)c(C(N)=O)c2nc(-c3cccc(F)n3)ccc21 [Compound 25],399
4,Cc1ccc(O)c(C)c1-n1c(N)c(C(N)=O)c2nc(-c3cc(C(F)(F)F)ccn3)cnc21 [Compound 36],14
5,Cc1ccc(O)c(C)c1-n1c(N)c(C(N)=O)c2nc(N3CCC(C)(O)CC3)cnc21 [Compound 52],10
6,Cc1ccc(O)c(C)c1-n1c(N)c(C(N)=O)c2nc(N3CCN(C)CC3)cnc21 [Compound 53],16
7,Cc1ccc(O)c(C)c1-n1c(N)c(C(N)=O)c2nc(N3CCOC(C)C3)cnc21 (stereo not drawn) [Compound 59],12
8,Cc1ccc(O)c(C)c1-n1c(N)c(C(N)=O)c2nc(-c3ncco3)cnc21 [Compound 60],10
9,Cc1ccc(O)c(C)c1-n1c(N)c(C(N)=O)c2nc(N3CCNC(=O)C3)cnc21 [Compound 66],10
10,Cc1ccc(O)c(C)c1-n1c(N)c(C(N)=O)c2nc(N3CCNCC3)cnc21 [Compound 67],14
11,Cc1ccc(O)c(C)c1-n1c(N)c(C(N)=O)c2nc(-c3ccn(C)n3)cnc21 [Compound 72],11
12,Cc1ccc(O)c(C)c1-n1c(N)c(C(N)=O)c2nc(N3CCC(N4CCOCC4)CC3)cnc21 [Compound 74],14
13,Cc1ccc(O)c(C)c1-n1c(N)c(C(N)=O)c2nc(N3CCS(=O)(=O)CC3)cnc21 [Compound 75],11
14,Cc1ccc(O)c(C)c1-n1c(N)c(C(N)=O)c2nc(C3=CCCCC3)cnc21 [Compound 86],< 10
15,CC(=O)N1CCN(c2cnc3c(n2)c(C(N)=O)c(N)n3-c2c(C)ccc(O)c2C)CC1 [Compound 87],< 10
16,CCN(CC)c1cnc2c(n1)c(C(N)=O)c(N)n2-c1c(C)ccc(O)c1C [Compound 88],< 10
17,Cc1ccc(O)c(C)c1-n1c(N)c(C(N)=O)c2nc(N3CC4CCC(C3)O4)cnc21 [Compound 92],< 10
18,CCCCc1cnc2c(n1)c(C(N)=O)c(N)n2-c1c(C)ccc(O)c1C [Compound 96],10
19,"CC(=O)c1c(N)n(-c2c(C)ccc(O)c2C)c2ncc(-c3cnccn3)nc12 [Compound 97, 1-[6-amino-5-(3-hydroxy-2,6-dimethyl-phenyl)-2-pyrazin-2-yl-pyrrolo[2,3-b]pyrazin-7-yl]ethenone]",12
20,Cc1ccc(O)c(C)c1-n1c(N)c(C(N)=O)c2nc(C3CC3)c(C)nc21 [Compound 100],< 10

# More lines, now with the values ahead:
row,IC50 [nM],Structure (SMILES)
1,< 10,"Cc1ccc(O)c(C)c1-n1c(N)c(C(N)=O)c2nc(-c3nccs3)c(C)nc21 [Compound 31, 6-amino-5-(3-hydroxy-2,6-dimethyl-phenyl)-3-methyl-2-thiazol-2-yl-pyrrolo[2,3-b]pyrazine-7-carboxamide]"
2,< 10,Cc1ccc(O)c(C)c1-n1c(N)c(C(N)=O)c2nc(-c3nc(C)c(C)s3)cnc21 [Compound 32]
3,< 10,Cc1ccc(O)c(C)c1-n1c(N)c(C(N)=O)c2nc(-c3ccccn3)cnc21 [Compound 34]
4,< 10,"Cc1ccc(O)c(C)c1-n1c(N)c(C(N)=O)c2nc(-c3ccnc(C(F)(F)F)c3)cnc21 [Compound 35, 6-amino-5-(3-hydroxy-2,6-dimethyl-phenyl)-2-[2-(trifluoromethyl)-4-pyridyl]pyrrolo[2,3-b]pyrazine-7-carboxamide]"
5,< 10,Cc1ccc(O)c(C)c1-n1c(N)c(C(N)=O)c2nc(-c3cncs3)cnc21 [Compound 37]
6,< 10,Cc1ccc(O)c(C)c1-n1c(N)c(C(N)=O)c2nc(-c3cnccn3)cnc21 [Compound 38]
7,< 10,Cc1ccc(O)c(C)c1-n1c(N)c(C(N)=O)c2nc(-c3ccns3)cnc21 [Compound 41]
8,< 10,Cc1c(O)ccc(Cl)c1-n1c(N)c(C(N)=O)c2nc(-c3nccs3)cnc21 [Compound 42]
9,< 10,"CNC(=O)C1CCN(c2cnc3c(n2)c(C(N)=O)c(N)n3-c2c(C)ccc(O)c2C)CC1 [Compound 46, 6-amino-5-(3-hydroxy-2,6-dimethyl-phenyl)-2-[4-(methylcarbamoyl)-1-piperidyl]pyrrolo[2,3-b]pyrazine-7-carboxamide]"
10,< 10,Cc1ccc(O)c(C)c1-n1c(N)c(C(N)=O)c2nc(-c3ccc(Cl)cn3)cnc21 [Compound 49]
11,< 10,Cc1ccc(O)c(C)c1-n1c(N)c(C(N)=O)c2nc(-c3ccncn3)cnc21 [Compound 57]
12,< 10,Cc1ccc(O)c(C)c1-n1c(N)c(C(N)=O)c2nc(C3=CCC(C(=O)N(C)C)CC3)cnc21 (stereo not drawn) [Compound 58]
13,< 10,Cc1ccc(-c2cnc3c(n2)c(C(N)=O)c(N)n3-c2c(C)ccc(O)c2C)nc1 [Compound 61]
14,< 10,Cc1ccc(O)c(C)c1-n1c(N)c(C(N)=O)c2nc(-c3ccc(F)cn3)cnc21 [Compound 64]
15,< 10,Cc1ccc(O)c(C)c1-n1c(N)c(C(N)=O)c2nc(-c3c[nH]cn3)cnc21 [Compound 65]
16,< 10,Cc1ccc(O)c(C)c1-n1c(N)c(C(N)=O)c2nc(-c3cn(C)cn3)cnc21 [Compound 76]
17,< 10,Cc1ccc(O)c(C)c1-n1c(N)c(C(N)=O)c2nc(N3CCC(C(=O)N(C)C)CC3)cnc21 [Compound 80]
18,< 10,Cc1ccc(O)c(C)c1-n1c(N)c(C(N)=O)c2nc(N3CCCCC3)cnc21 [Compound 81]
19,< 10,Cc1ccc(O)c(C)c1-n1c(N)c(C(N)=O)c2nc(C3CCCCC3)cnc21 [Compound 83]
20,< 10,Cc1ccc(O)c(C)c1-n1c(N)c(C(N)=O)c2nc(N3CCCC3)cnc21 [Compound 85]
